For one data set, the system named is S. aureus (ATCC29213). In words: 50% growth inhibitory concentration (IC50) determination assay, S. aureus. The note with it: Staphylococcus aureus, ATCC29213; Iso-Sensitest broth, growth by OD 600 nm over 16 h; <0.098 = detection limit. The class given is cell-based. The method, then:
(§1) The in vitro antimicrobial activity of the compounds against S. aureus (ATCC29213), K. pneumoniae (ATCC10031), and A. baumannii (ATCC17978), was determined according to the following procedure: The assay used a 10-points Iso-Sensitest broth medium to measure quantitatively the in vitro activity of the compounds against S. aureus ATCC29213, K. pneumoniae ATCC 10031, and A. baumannii ATCC17978. Stock compounds in DMSO were serially two-fold diluted (range from 50 to 0.097 μM final concentration) in 384 wells microtiter plates and inoculated with 49 μL the bacterial suspension in Iso-Sensitest broth medium to have a final cell concentration of ˜5×10^5 CFU/mL in a final volume/well of 50 μL/well. Microtiter plates were incubated at 35±2° C. Bacterial cell growth was determined with the measurement of optical density at λ=600 nm each 20 minutes over a time course of 16 h.

A further data set has as its system A. baumannii (ATCC17978). In words: 50% growth inhibitory concentration (IC50) determination assay, A. baumannii. The conditions noted are these: Acinetobacter baumannii, ATCC17978; Iso-Sensitest broth, growth by OD 600 nm over 16 h; <0.098 = detection limit. The class given is cell-based. The method, then: as §1
Data set [1] concerns multiple species and strains. As to the kind of experiment: microbe, parasite or virus in culture. The conditions noted are these: for MIC S9: E. coli ATCC 35218. On the set-up: MIC S9 / MIC S7 / MIC S11 / MIC S8 / MIC S10: unit not given beside the values. The method, then: The MIC of antibacterial compounds against multiple species and strains was determined using the broth microdilution method according to M07-A10 Clinical and Laboratory Standards Institute (CLSI) guidelines (CLSI (2015) Methods for dilution antimicrobial susceptibility tests for bacteria that grow aerobically; Approved Standard, Tenth Edition. CLSI Document M7-A10 (ISBN 1-56238-987-4). Wayne, Pa.: Clinical and Laboratory Standards Institute, 19087, USA.). In short, bacterial strain preparation was performed on D1 and D2. […] 5-10 well-isolated colonies of similar morphology were selected and re-streaked onto fresh agar plates using sterile loops and incubated for 20-24 hr at 35±2° C. Bacterial strains were subcultured two times to ensure fresh inoculums for MIC screening. […] Alternatively, 1-2 colonies were transferred into 500 μL of saline and OD600 was adjusted to ˜0.1 using an OD meter. Bacterial inoculum was diluted by 1:280 for Gram-positive strains and 1:400 for Gram-negative strains into corresponding medium broth (CAMHB, CAMHB+3% lysed horse blood, HTM) (e.g. 35.6 μL of inoculum into 10 mL of CAMHB or 25 μL of inoculum into 10 mL of CAMHB). For compound plate, the compound stock solutions were prepared in 100% DMSO on the day of MIC screening and used immediately. Compound stock concentration=[(highest testing concentration)×100 μL/2 μL] (e.g. if the required highest testing concentration is 64 μg/mL in assay plates, stock concentration=64 μg/mL×100 μL/2 μL=3.2 mg/mL). […] 1 μL of each well was transferred in a new MTP, which served as the test plate by subsequent inoculation. The bacterial suspension prepared above is dispensed at 98 μL/well within 15 minutes after preparation. Negative controls (lack of bacterial cells) and growth control wells (lack of compound) were included in all plates. MTPs were incubated for 18-24 hours at 35±2° C. in ambient air. The MIC was recorded and CFUs were calculated on Day 4. The assay plate was placed on the top of MIC reader, and the magnification mirror was adjusted to read each wells, recording growth status as raw data. Photo images of each assay plates were recorded using Q Count 530 (Spiral Biotech). The MIC value of each compound, expressed as μg/mL, was determined as the lowest concentration required for complete growth inhibition (no visible growth).

Data set [2] concerns K. pneumoniae (ATCC10031). In words: 50% growth inhibitory concentration (IC50) determination assay, K. pneumoniae. Type of data set: cell-based. The conditions noted are these: Klebsiella pneumoniae, ATCC10031; Iso-Sensitest broth, growth by OD 600 nm over 16 h; <0.098 = detection limit. The method, then: as §1
[3] abbreviates: Acinetobacter baumannii, ATCC19606, read-out: MIC S1, A. baumannii ATCC 19606.
Where [4] appears, read: Acinetobacter baumannii, ATCC51432, read-out: MIC S2, A. baumannii ATCC 51432.
[5] abbreviates: Acinetobacter baumannii, ATCCBAA747, read-out: MIC S3, A. baumannii ATCC BAA-747.
Setting [6] is: Escherichia coli, ATCC25922, read-out: MIC S11, E. coli ATCC 25922.
Setting [7] is: Escherichia coli, ATCCBAA2340, read-out: MIC S10, E. coli ATCC BAA-2340.
Setting [8] is: Klebsiella pneumoniae, ATCC10031, read-out: MIC S4, K. pneumoniae ATCC 10031.
Where [9] appears, read: Klebsiella pneumoniae, ATCC700603, read-out: MIC S5, K. pneumoniae ATCC 700603.
Where [10] appears, read: Klebsiella pneumoniae, ATCCBAA2146, read-out: MIC S6, K. pneumoniae ATCC BAA-2146.
The mark [11] stands for this setting: Pseudomonas aeruginosa, ATCC27853, read-out: MIC S7, P. aeruginosa ATCC 27853.
[12] abbreviates: Pseudomonas aeruginosa, ATCCBAA2113, read-out: MIC S8, P. aeruginosa ATCC BAA-2113.

The source of these data is US20210238197A1, “NOVEL OXOQUINOLIZINE COMPOUNDS FOR THE TREATMENT AND PROPHYLAXIS OF BACTERIAL INFECTION” (Hoffmann-La Roche Inc., priority 2018, published 2021).

≈ marks a conversion by molar mass, not a printed value. Like-named read-outs stand apart in the source and are kept apart here.

What is called IC50 is the concentration needed to halve the response being measured. On to `CNc1cc(F)c(F)c2c1[nH]c1ncc(-c3ccc4c(Cl)cc(C(=O)O)c(=O)n4c3)c(N3CC[C@H]4CN(C)C[C@H]43)c12` (relative stereo) [Example 2.11, 7-[4-[cis-5-methyl-2,3,3a,4,6,6a-hexahydropyrrolo[2,3-c]pyrrol-1-yl]-5,6-difluoro-8-(methylamino)-9H-pyrido[2,3-b]indol-3-yl]-1-chloro-4-oxo-quinolizine-3-carboxylic acid], for which the half-inhibitory concentration (IC50) (in the data set with S. aureus (ATCC29213); in the data set with A. baumannii (ATCC17978); in data set [2]) was less than 0.098 µM each time. Further, the MIC in data set [1] (setting [3]) turned out to be 0.27 mg/L (≈ 0.466 µM); in data set [1] (setting [4]), 0.541 mg/L (≈ 0.934 µM); in data set [1] (setting [5]), 0.541 mg/L (≈ 0.934 µM); in data set [1] (setting [6]) it was 0.203 mg/L (≈ 0.351 µM); in data set [1] (setting [7]), 1.08 mg/L (≈ 1.87 µM); in data set [1] (setting [8]) it was 0.068 mg/L (≈ 0.117 µM). In addition, the MIC in data set [1] (setting [9]) amounted to 4.33 mg/L (≈ 7.48 µM); in data set [1] (setting [10]), 4.33 mg/L (≈ 7.48 µM); in data set [1] (setting [11]) it was 2.17 mg/L (≈ 3.74 µM); in data set [1] (setting [12]), 4.33 mg/L (≈ 7.48 µM). Moreover, in data set [1], the “MIC S9” value is 1.081.

`CNc1cc(F)c(F)c2c1[nH]c1ncc(-c3ccc4ccc(C(=O)O)c(=O)n4c3)c(N3CC4C(N(C)C)CO[C@@H]4C3)c12` (stereo partly drawn) [Example 1.06, 7-[4-[cis-3-(dimethylamino)-2,3,3a,4,6,6a-hexahydrofuro[2,3-c]pyrrol-5-yl]-5,6-difluoro-8-(methylamino)-9H-pyrido[2,3-b]indol-3-yl]-4-oxo-quinolizine-3-carboxylic acid]: the IC50 with S. aureus (ATCC29213) is 0.137 µM; with A. baumannii (ATCC17978), less than 0.098 µM; in data set [2], less than 0.098 µM.

Turning to `CNc1cc(F)c(F)c2c1[nH]c1ncc(-c3cc(C)c4ccc(C(=O)O)c(=O)n4c3)c(N(C)C)c12` [Example 1.20, 7-[4-(dimethylamino)-5,6-difluoro-8-(methylamino)-9H-pyrido[2,3-b]indol-3-yl]-9-methyl-4-oxo-quinolizine-3-carboxylic acid], the MIC in data set [1] (setting [3]) came out at 0.187 mg/L (≈ 0.392 µM); in data set [1] (setting [4]), 1.49 mg/L (≈ 3.12 µM); in data set [1] (setting [5]), 0.746 mg/L (≈ 1.56 µM); in data set [1] (setting [6]) it was 0.42 mg/L (≈ 0.88 µM); in data set [1] (setting [7]), 0.559 mg/L (≈ 1.17 µM); in data set [1] (setting [8]) it was 0.187 mg/L (≈ 0.392 µM). For the same molecule, the MIC in data set [1] (setting [9]) is 1.49 mg/L (≈ 3.12 µM); in data set [1] (setting [10]) it was 2.98 mg/L (≈ 6.25 µM); in data set [1] (setting [11]), 2.98 mg/L (≈ 6.25 µM); in data set [1] (setting [12]) it was 2.24 mg/L (≈ 4.69 µM). For the same molecule, the “MIC S9” value in data set [1] is given as 0.559.

Consider `CNc1cc(F)c(C#N)c2c1[nH]c1ncc(-c3ccc4ccc(C(=O)O)c(=O)n4c3)c(N(C)C)c12` [Example 1.18, 7-[5-cyano-4-(dimethylamino)-6-fluoro-8-(methylamino)-9H-pyrido[2,3-b]indol-3-yl]-4-oxo-quinolizine-3-carboxylic acid], for which the MIC in data set [1] (setting [3]) was 0.092 mg/L (≈ 0.196 µM); in data set [1] (setting [4]) it was 0.367 mg/L (≈ 0.78 µM); in data set [1] (setting [5]), 0.184 mg/L (≈ 0.391 µM); in data set [1] (setting [6]), 0.551 mg/L (≈ 1.17 µM); in data set [1] (setting [7]), 0.046 mg/L (≈ 0.0978 µM); in data set [1] (setting [8]) it was 0.046 mg/L (≈ 0.0978 µM). Also, the MIC was determined as 0.092 mg/L (≈ 0.196 µM) in data set [1] (setting [9]), 0.735 mg/L (≈ 1.56 µM) in data set [1] (setting [10]), 0.367 mg/L (≈ 0.78 µM) in data set [1] (setting [11]) and 0.184 mg/L (≈ 0.391 µM) in data set [1] (setting [12]). The “MIC S9” value in data set [1] was 0.046.

Regarding `CNc1cc(F)c(F)c2c1[nH]c1ncc(-c3ccc4ccc(C(=O)O)c(=O)n4c3)c(N3CCC(C4(N)CC4)C3)c12` (centres unmarked) [Example 1.21, 7-[4-[3-(1-aminocyclopropyl)pyrrolidin-1-yl]-5,6-difluoro-8-(methylamino)-9H-pyrido[2,3-b]indol-3-yl]-4-oxo-quinolizine-3-carboxylic acid], the MIC came to 0.603 mg/L (≈ 1.11 µM) in data set [1] (setting [3]); 1.21 mg/L (≈ 2.22 µM) in data set [1] (setting [4]); 1.21 mg/L (≈ 2.22 µM) in data set [1] (setting [5]); 0.34 mg/L (≈ 0.624 µM) in data set [1] (setting [6]); 0.302 mg/L (≈ 0.555 µM) in data set [1] (setting [7]); 0.038 mg/L (≈ 0.0698 µM) in data set [1] (setting [8]). Further, the MIC in data set [1] (setting [9]) worked out at 4.83 mg/L (≈ 8.87 µM); in data set [1] (setting [10]) it was 4.83 mg/L (≈ 8.87 µM); in data set [1] (setting [11]), 1.21 mg/L (≈ 2.22 µM); in data set [1] (setting [12]), 2.41 mg/L (≈ 4.43 µM). Also, the “MIC S9” value in data set [1] is recorded as 0.603.

For the molecule `CNc1cc(F)c(F)c2c1[nH]c1ncc(-c3ccc4ccc(C(=O)O)c(=O)n4c3)c(N3CC4[C@H](CC[C@@H]4N(C)C)C3)c12` (stereo partly drawn) [Example 1.09, 7-[4-[cis-(4S)-4-(dimethylamino)-3,3a,4,5,6,6a-hexahydro-1H-cyclopenta[c]pyrrol-2-yl]-5,6-difluoro-8-(methylamino)-9H-pyrido[2,3-b]indol-3-yl]-4-oxo-quinolizine-3-carboxylic acid], the IC50 (in the data set with S. aureus (ATCC29213); with A. baumannii (ATCC17978); in data set [2]) was less than 0.098 µM throughout.

In the case of `CNc1cc(F)c(F)c2c1[nH]c1ncc(-c3ccc4ccc(C(=O)O)c(=O)n4c3)c(N3C[C@@H]4[C@H](C3)[C@H]4N(C)C)c12` [Example 1.13, 7-(4-((1R,5S,6S)-6-(dimethylamino)-3-azabicyclo[3.1.0]hexan-3-yl)-5,6-difluoro-8-(methylamino)-9H-pyrido[2,3-b]indol-3-yl)-4-oxo-4H-quinolizine-3-carboxylic acid], the IC50 (with S. aureus (ATCC29213); in the data set on A. baumannii (ATCC17978); in data set [2]) was less than 0.098 µM each time.

For the molecule `CNc1cc(F)c(F)c2c1[nH]c1ncc(-c3ccc4c(C5CC5)cc(C(=O)O)c(=O)n4c3)c(N3CC[C@H]4CN(C)C[C@H]43)c12` (relative stereo) [Example 2.05, 7-[4-[cis-5-methyl-2,3,3a,4,6,6a-hexahydropyrrolo[2,3-c]pyrrol-1-yl]-5,6-difluoro-8-(methylamino)-9H-pyrido[2,3-b]indol-3-yl]-1-cyclopropyl-4-oxo-quinolizine-3-carboxylic acid], the IC50 (in the data set on S. aureus (ATCC29213); in the data set with A. baumannii (ATCC17978); in data set [2]) was less than 0.098 µM in each case.

`CNc1cc(F)c(F)c2c1[nH]c1ncc(-c3ccc4ccc(C(=O)O)c(=O)n4c3)c(N3C[C@@H]4CCN(C)[C@@H]4C3)c12` [Example 3.03B, 7-[4-[(3aS,6aS)-1-methyl-2,3,3a,4,6,6a-hexahydropyrrolo[3,4-b]pyrrol-5-yl]-5,6-difluoro-8-(methylamino)-9H-pyrido[2,3-b]indol-3-yl]-4-oxo-quinolizine-3-carboxylic acid]: the IC50 (in the data set with S. aureus (ATCC29213); in the data set on A. baumannii (ATCC17978); in data set [2]) was less than 0.098 µM each time.
